The values below come from patent US9822099B2, “Triazole derivatives” (priority 2013, dated 2017).

One data set deals with Septoria tritici. Briefly: Example D: in vivo preventive test on Septoria tritici (leaf spot on wheat). To be noted: wheat plants, preventive spray, evaluated 24 days after inoculation. On the procedure:
The young plants of wheat are treated by spraying the active ingredient prepared as described above. Control plants are treated only with an aqueous solution of acetone/Dimethyl sulfoxide/Tween®. After 24 hours, the plants are contaminated by spraying the leaves with an aqueous suspension of Septoria tritici spores.

A further data set relates to Uromyces appendiculatus. Put plainly: Example F: in vivo preventive test on Uromyces appendiculatus (bean rust). The settings on record: bean plants, preventive spray, evaluated 11 days after inoculation. On the procedure: The young plants of bean are treated by spraying the active ingredient prepared as described above. Control plants are treated only with an aqueous solution of acetone/Dimethyl sulfoxide/Tween®. After 24 hours, the plants are contaminated by spraying the leaves with an aqueous suspension of Uromyces appendiculatus spores.

The subject of a further data set is Fusarium graminearum. It counts as in vivo. The settings on record: 500 ppm of active ingredient; barley, preventive; evaluated 5 days after inoculation.
A further data set concerns Venturia inaequalis. Put plainly: Example O: Venturia test (apples)/preventive. It counts as in vivo. To be noted: 100 ppm of active ingredient, preventive, evaluated 10 days after inoculation. The protocol: (§1) Solvent: 24.5 parts by weight of acetone • 24.5 parts by weight of dimethylacetamide Emulsifier: 1 part by weight of alkylaryl polyglycol ether To produce a suitable preparation of active compound, 1 part by weight of active compound is mixed with the stated amounts of solvent and emulsifier, and the concentrate is diluted with water to the desired concentration. To test for preventive activity, young plants are sprayed with the preparation of active compound at the stated rate of application.

The test system of data set [1] is Fusarium nivale (var. majus). Put plainly: Example J: Fusarium nivale (var. majus)-test (wheat)/preventive. It is filed as in vivo. The settings on record: 500 ppm of active ingredient, preventive, evaluated 5 days after inoculation. In short, it runs like this: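 Young wheat plants sprayed preventively with active compound (DMA/emulsifier concentrate diluted in water) at the stated rate, then sandblast-wounded and inoculated with conidia. Held in greenhouse at ~10 °C, ~100% RH. Efficacy scored 5 days post-inoculation: 0% = untreated control, 100% = no disease.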

The subject of another data set is Phakopsora pachyrhizi. Briefly: Example L: Phakopsora test (soybeans)/preventive. It is filed as in vivo. To be noted: 100 ppm of active ingredient, preventive, evaluated 7 days after inoculation.
In data set [2] the test system is Blumeria graminis f. sp. hordei. Put plainly: Example G: Blumeria test (barley)/preventive. It counts as in vivo. The settings on record: 500 ppm of active ingredient, preventive, evaluated 7 days after inoculation. In short, it runs like this: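 Active compound formulated in N,N-dimethylacetamide with alkylaryl polyglycol ether emulsifier, diluted in water, and sprayed onto young barley plants at the stated application rate. Once the coating dried, plants were dusted with Blumeria graminis f. sp. hordei spores as a preventive test.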

The subject of the next data set is Fusarium culmorum. Put plainly: Example H: Fusarium culmorum-test (wheat)/curative. To be noted: 500 ppm of active ingredient, curative, evaluated 5 days after inoculation. It counts as in vivo. The gist of the method: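 Curative wheat test: sandblast-wounded young plants inoculated with F. culmorum conidia, held 24 h at ~22 °C and ~100% RH, then sprayed with compound (DMA/emulsifier formulation diluted in water) at the stated rate. Kept under cloches at same conditions; efficacy scored 5 days post-inoculation (0% = untreated, 100% = no disease).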

Another data set deals with Pyrenophora teres. Briefly: Example C: in vivo preventive test on Pyrenophora teres (net blotch on barley). The settings on record: barley plants, preventive spray, evaluated 14 days after inoculation. On the procedure:
The young plants of barley are treated by spraying the active ingredient prepared as described above. Control plants are treated only with an aqueous solution of acetone/Dimethyl sulfoxide/Tween®. After 24 hours, the plants are contaminated by spraying the leaves with an aqueous suspension of Pyrenophora teres spores.

In a further data set the test system is Pyricularia oryzae. It is filed as in vivo. The settings on record: 500 ppm of active ingredient; rice, preventive; evaluated 8 days after inoculation.
The subject of a further data set is Botrytis cinerea. Put plainly: Example A: in vivo preventive test on Botrytis cinerea (grey mould). The settings on record: gherkin plants, preventive spray, evaluated 4 to 5 days after inoculation. The protocol: The young plants of gherkin are treated by spraying the active ingredient prepared as described above. Control plants are treated only with an aqueous solution of acetone/Dimethyl sulfoxide/Tween®. After 24 hours, the plants are contaminated by spraying the leaves with an aqueous suspension of Botrytis cinerea spores.

The subject of a further data set is Sphaerotheca fuliginea. Put plainly: Example E: in vivo preventive test on Sphaerotheca fuliginea (powdery mildew on cucurbits). The settings on record: gherkin plants, preventive spray, evaluated 15 days after inoculation. On the procedure:
The young plants of gherkin are treated by spraying the active ingredient prepared as described above. Control plants are treated only with an aqueous solution of acetone/Dimethyl sulfoxide/Tween®. After 24 hours, the plants are contaminated by spraying the leaves with an aqueous suspension of Sphaerotheca fuliginea spores.

The test system of another data set is Leptosphaeria nodorum. Put plainly: Example K: Leptosphaeria nodorum test (wheat)/preventive. It counts as in vivo. To be noted: 500 ppm of active ingredient, preventive, evaluated 8 days after inoculation. The gist of the method: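 Young wheat plants sprayed preventively with compound in N,N-dimethylacetamide/alkylaryl polyglycol ether emulsifier diluted with water at the stated application rate. Once the coating dried, plants were inoculated with a Leptosphaeria nodorum spore suspension.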

Another data set has as its system Puccinia recondita. Put plainly: Example B: in vivo preventive test on Puccinia recondita (brown rust on wheat). To be noted: wheat plants, preventive spray, evaluated 11 days after inoculation. On the procedure:
The young plants of wheat are treated by spraying the active ingredient prepared as described above. Control plants are treated only with an aqueous solution of acetone/Dimethyl sulfoxide/Tween®. After 24 hours, the plants are contaminated by spraying the leaves with an aqueous suspension of Puccinia recondita spores.

The test system of the next data set is Podosphaera leucotricha. Put plainly: Example M: Podosphaera test (apples)/preventive. It counts as in vivo. The settings on record: 100 ppm of active ingredient, preventive, evaluated 10 days after inoculation. The protocol: as §1, with “application. After the spray coating has dried on, the plants are inoculated with an aqueous spore suspension of the causal agent of apple mildew (Podosphaera leucotricha).” for “application.”

Read-outs that look alike come from different tables or passages of the source. Marks after values point to notes of the source that are not given here.

As for `OC(Cc1ccncc1Cl)(Cn1cncn1)C1(F)CC1` (stereo not drawn) [Example I-7], the Eff. % in the data set with Septoria tritici (100 ppm of active ingredient) is recorded as 98%; in the data set on Uromyces appendiculatus (100 ppm of active ingredient) it was 100%; in the data set on Fusarium graminearum, 100%; in the data set with Venturia inaequalis it was 98%; in data set [1] it was 100%; in the data set with Phakopsora pachyrhizi, 94%. The Eff. % in data set [2] amounted to 100%; in the data set on Fusarium culmorum, 100%; with Pyrenophora teres (100 ppm of active ingredient) it was 92%; in the data set on Pyricularia oryzae it was 100%; in the data set with Botrytis cinerea (100 ppm of active ingredient), 100%; with Sphaerotheca fuliginea (100 ppm of active ingredient) it was 100%. Moreover, the Eff. % was 100% in the data set with Leptosphaeria nodorum and 94% in the data set on Puccinia recondita (100 ppm of active ingredient). Further, the LogP (method [a]: LC-MS at pH 2.7, 0.1% formic acid in water / acetonitrile gradient) was 1.29^[a].
As to `OC(Cc1cc(F)ncc1Cl)(Cn1cncn1)C1(F)CC1` (racemic) [Example I-65], the Eff. % (in the data set with Septoria tritici (500 ppm of active ingredient); in the data set on Uromyces appendiculatus (500 ppm of active ingredient); in the data set with Fusarium graminearum; in the data set on Venturia inaequalis; in data set [1]; with Phakopsora pachyrhizi) was 100% in each case. Further, the Eff. % in [2] turned out to be 100%; with Fusarium culmorum, 100%; in the data set on Pyrenophora teres (500 ppm of active ingredient), 100%; in the data set on Pyricularia oryzae, 86%; in the data set with Botrytis cinerea (500 ppm of active ingredient) it was 100%; in the data set on Sphaerotheca fuliginea (500 ppm of active ingredient) it was 100%. Also, the results for the Eff. % with Leptosphaeria nodorum and with Puccinia recondita (500 ppm of active ingredient) were 100% and 98%, respectively. Besides, the LogP (pH 2.7) is 1.77^[a].
For `OC(Cc1ccncc1F)(Cn1cncn1)C1(Cl)CC1` (stereo not drawn) [Example I-18], the Eff. % with Septoria tritici (100 ppm of active ingredient) is 98%; in the data set on Uromyces appendiculatus (100 ppm of active ingredient) it was 97%; in the data set on Fusarium graminearum it was 100%; with Venturia inaequalis, 100%; in data set [1], 100%; in the data set with Phakopsora pachyrhizi, 95%. Moreover, the Eff. % was 100% in [2]; 100% in the data set on Fusarium culmorum; 83% in the data set on Pyrenophora teres (100 ppm of active ingredient); 100% with Botrytis cinerea (100 ppm of active ingredient); 100% in the data set with Sphaerotheca fuliginea (100 ppm of active ingredient); 100% in the data set on Leptosphaeria nodorum. Further, the Eff. % in the data set on Podosphaera leucotricha turned out to be 97%; in the data set with Puccinia recondita (100 ppm of active ingredient), 94%. For the same compound, the LogP (pH 2.7) was 1.29^[a].
For the compound `OC(Cc1ccncc1Cl)(Cn1cncn1)C1(Cl)CC1` (stereo not drawn) [Example I-5, 2-(1-chlorocyclopropyl)-1-(3-chloropyridin-4-yl)-3-(1H-1,2,4-triazol-1-yl)propan-2-ol], the Eff. % in the data set with Septoria tritici (500 ppm of active ingredient) turned out to be 100%; in the data set on Uromyces appendiculatus (500 ppm of active ingredient), 98%; in the data set on Fusarium graminearum, 100%; in the data set on Venturia inaequalis, 100%; in [1], 100%; in the data set on Phakopsora pachyrhizi, 100%. Also, the Eff. % is 100% in data set [2]; 100% in the data set on Fusarium culmorum; 75% in the data set on Pyricularia oryzae; 100% in the data set on Botrytis cinerea (500 ppm of active ingredient); 100% in the data set on Sphaerotheca fuliginea (500 ppm of active ingredient); 90% with Leptosphaeria nodorum. Besides, the Eff. % in the data set on Podosphaera leucotricha and in the data set with Puccinia recondita (500 ppm of active ingredient) was 100% throughout.
Consider `OC(Cc1cccnc1Cl)(Cn1cncn1)C1(Cl)CC1` (stereo not drawn) [Example I-3], for which the Eff. % in the data set with Septoria tritici (500 ppm of active ingredient) is on record as 100%; in the data set with Uromyces appendiculatus (500 ppm of active ingredient), 100%; with Fusarium graminearum, 100%; in the data set with Venturia inaequalis, 98%; in data set [1] it was 100%; in the data set on Phakopsora pachyrhizi, 100%. Moreover, the Eff. % (in data set [2]; in the data set with Fusarium culmorum; in the data set with Pyrenophora teres (500 ppm of active ingredient); with Pyricularia oryzae; in the data set with Botrytis cinerea (500 ppm of active ingredient); in the data set with Sphaerotheca fuliginea (100 ppm of active ingredient)) was 100% in each case. Moreover, the figures for the Eff. % with Leptosphaeria nodorum, in the data set with Podosphaera leucotricha and with Puccinia recondita (500 ppm of active ingredient) were 100%, 100% and 98%, respectively. Also, under “pH 2.7”, the LogP is 1.78^[a].
